Laboratory results reported in PMC5218480 (PLoS ONE, 2017).

Test system: MV-4-11 cells
Test: Gene expression microarray analysis (Affymetrix PrimeView) and GSEA
Type: cell-based, human
Design: RFU PODN (11730768_x_at) / Fold change /veh PODN (11730768_x_at) / RFU LINC00158 (11744669_a_at) / Fold change /veh LINC00158 (11744669_a_at) / RFU DUSP10 (11751237_a_at) / Fold change /veh DUSP10 (11751237_a_at) / RFU ID3 (11757404_x_at) / Fold change /veh ID3 (11757404_x_at) / RFU PLEKHG5 (11737974_s_at) / Fold change /veh PLEKHG5 (11737974_s_at) / RFU LRRC4B (11730491_at) / Fold change /veh LRRC4B (11730491_at) / RFU GIMAP4 (11747438_a_at) / Fold change /veh GIMAP4 (11747438_a_at) / RFU KRT8 (11758183_x_at) / Fold change /veh KRT8 (11758183_x_at) / RFU CNN1 (11734310_a_at) / Fold change /veh CNN1 (11734310_a_at) / RFU VPS37D (11726825_at) / Fold change /veh VPS37D (11726825_at) / RFU C10orf10 (11716522_x_at) / Fold change /veh C10orf10 (11716522_x_at) / RFU KIR2DL2 /// KIR2DL4 /// KIR2DL5A /// KIR2DL5B /// KIR2DS1 /// KIR2DS2 /// KIR2DS3 /// KIR2DS4 /// KIR3DL3 /// KIR3DL3 /// KIR3DS1 (11738374_at) / Fold change /veh KIR2DL2 /// KIR2DL4 /// KIR2DL5A /// KIR2DL5B /// KIR2DS1 /// KIR2DS2 /// KIR2DS3 /// KIR2DS4 /// KIR3DL3 /// KIR3DL3 /// KIR3DS1 (11738374_at) / RFU C1QL1 (11718748_at) / Fold change /veh C1QL1 (11718748_at) / RFU TMPRSS4 (11747572_a_at) / Fold change /veh TMPRSS4 (11747572_a_at) / RFU HAMP (11756126_x_at) / Fold change /veh HAMP (11756126_x_at) / RFU RNFT2 (11725882_a_at) / Fold change /veh RNFT2 (11725882_a_at) / RFU NR4A2 (11747474_a_at) / Fold change /veh NR4A2 (11747474_a_at) / RFU ABCC12 (11746883_a_at) / Fold change /veh ABCC12 (11746883_a_at) / RFU TMEM136 (11760407_x_at) / Fold change /veh TMEM136 (11760407_x_at) / RFU CLDN22 /// WWC2 (11732394_at) / Fold change /veh CLDN22 /// WWC2 (11732394_at) / RFU HLA-DPB1 (11760878_x_at) / Fold change /veh HLA-DPB1 (11760878_x_at) / RFU SPINT1 (11716480_a_at) / Fold change /veh SPINT1 (11716480_a_at) / RFU GAP43 (11754022_s_at) / Fold change /veh GAP43 (11754022_s_at) / RFU A4GNT (11735810_at) / Fold change /veh A4GNT (11735810_at) / RFU PRB3 (11715151_x_at) / Fold change /veh PRB3 (11715151_x_at) / RFU TUBB4B (11761932_at) / Fold change /veh TUBB4B (11761932_at) / RFU CAPN14 (11732068_a_at) / Fold change /veh CAPN14 (11732068_a_at) / RFU TMCC2 (11721928_a_at) / Fold change /veh TMCC2 (11721928_a_at) / RFU IRGQ (11745062_a_at) / Fold change /veh IRGQ (11745062_a_at) / RFU FAM174B (11720279_a_at) / Fold change /veh FAM174B (11720279_a_at) / RFU TMPRSS4 (11748680_a_at) / Fold change /veh TMPRSS4 (11748680_a_at) / RFU FAM212B (11763350_a_at) / Fold change /veh FAM212B (11763350_a_at) / RFU PLEKHG5 (11743358_a_at) / Fold change /veh PLEKHG5 (11743358_a_at) / RFU ZSCAN30 (11745921_a_at) / Fold change /veh ZSCAN30 (11745921_a_at) / RFU CMKLR1 (11741424_a_at) / Fold change /veh CMKLR1 (11741424_a_at) / RFU LOC101060620 /// MAPK8IP1 (11723275_at) / Fold change /veh LOC101060620 /// MAPK8IP1 (11723275_at) / RFU SPTSSB (11747773_x_at) / Fold change /veh SPTSSB (11747773_x_at) / RFU PRSS12 (11739890_at) / Fold change /veh PRSS12 (11739890_at) / RFU BIN1 (11741810_x_at) / Fold change /veh BIN1 (11741810_x_at) / RFU WNT11 (11732464_a_at) / Fold change /veh WNT11 (11732464_a_at) / RFU C10orf10 (11716521_a_at) / Fold change /veh C10orf10 (11716521_a_at) / RFU C5orf56 (11738089_at) / Fold change /veh C5orf56 (11738089_at) / RFU CYB561 (11721691_x_at) / Fold change /veh CYB561 (11721691_x_at) / RFU ANKRD19P (11752326_a_at) / Fold change /veh ANKRD19P (11752326_a_at) / RFU OR2T12 /// OR2T33 /// OR2T8 (11738714_s_at) / Fold change /veh OR2T12 /// OR2T33 /// OR2T8 (11738714_s_at) / RFU VCAN (11748164_a_at) / Fold change /veh VCAN (11748164_a_at) / RFU JSRP1 (11732532_at) / Fold change /veh JSRP1 (11732532_at) / RFU KRTAP10-11 (11738290_x_at) / Fold change /veh KRTAP10-11 (11738290_x_at) / RFU MYO3A (11730013_a_at) / Fold change /veh MYO3A (11730013_a_at) / RFU EBF3 (11725865_a_at) / Fold change /veh EBF3 (11725865_a_at) / RFU CAMK2N1 (11719241_x_at) / Fold change /veh CAMK2N1 (11719241_x_at) / RFU C5orf56 (11738088_a_at) / Fold change /veh C5orf56 (11738088_a_at) / RFU OLFML3 (11715873_a_at) / Fold change /veh OLFML3 (11715873_a_at) / RFU LOC100653217 /// NTM (11731650_a_at) / Fold change /veh LOC100653217 /// NTM (11731650_a_at) / RFU MAPK11 (11762145_a_at) / Fold change /veh MAPK11 (11762145_a_at) / RFU FIZ1 (11724087_x_at) / Fold change /veh FIZ1 (11724087_x_at) / RFU OASL (11726364_x_at) / Fold change /veh OASL (11726364_x_at) / RFU SOX15 (11748057_x_at) / Fold change /veh SOX15 (11748057_x_at) / RFU CD79A (11719716_a_at) / Fold change /veh CD79A (11719716_a_at) / RFU HIST1H1D (11736915_at) / Fold change /veh HIST1H1D (11736915_at) / RFU CASKIN2 (11723855_a_at) / Fold change /veh CASKIN2 (11723855_a_at) / RFU LOC730098 (11760151_x_at) / Fold change /veh LOC730098 (11760151_x_at) / RFU OR4N2 (11742367_at) / Fold change /veh OR4N2 (11742367_at) / RFU PRRT2 (11749266_a_at) / Fold change /veh PRRT2 (11749266_a_at) / RFU SNX32 (11753110_a_at) / Fold change /veh SNX32 (11753110_a_at) / RFU CDHR5 (11726645_a_at) / Fold change /veh CDHR5 (11726645_a_at) / RFU RCAN1 (11760418_a_at) / Fold change /veh RCAN1 (11760418_a_at) / RFU FAM167A (11723789_a_at) / Fold change /veh FAM167A (11723789_a_at) / RFU FAM26E (11764081_at) / Fold change /veh FAM26E (11764081_at) / RFU ISYNA1 (11749810_s_at) / Fold change /veh ISYNA1 (11749810_s_at) / RFU ACY1 (11761880_at) / Fold change /veh ACY1 (11761880_at) / RFU 11764098_at / Fold change /veh 11764098_at / RFU SAMD14 (11745864_x_at) / Fold change /veh SAMD14 (11745864_x_at) / RFU NPB (11741838_a_at) / Fold change /veh NPB (11741838_a_at) / RFU TMPRSS6 (11731388_a_at) / Fold change /veh TMPRSS6 (11731388_a_at) / RFU KRTAP10-2 (11738614_at) / Fold change /veh KRTAP10-2 (11738614_at) / RFU ARHGAP8 /// PRR5-ARHGAP8 (11727945_x_at) / Fold change /veh ARHGAP8 /// PRR5-ARHGAP8 (11727945_x_at) / RFU KRTAP5-7 /// NADSYN1 (11734609_at) / Fold change /veh KRTAP5-7 /// NADSYN1 (11734609_at) / RFU RASL12 (11751679_a_at) / Fold change /veh RASL12 (11751679_a_at) / RFU CDKN2B (11736163_a_at) / Fold change /veh CDKN2B (11736163_a_at) / RFU PRF1 (11729649_at) / Fold change /veh PRF1 (11729649_at) / RFU, ZNF638 /// ZNF638-IT1 / Fold change vs veh, ZNF638 /// ZNF638-IT1 / RFU, PANK3 / Fold change vs veh, PANK3 / RFU, SH3YL1 / Fold change vs veh, SH3YL1 / RFU, ZEB2 / Fold change vs veh, ZEB2 / RFU, NRIP1 / Fold change vs veh, NRIP1 / RFU, PTTG1IP / Fold change vs veh, PTTG1IP / RFU, CAPN2 / Fold change vs veh, CAPN2 / RFU, MED14 / Fold change vs veh, MED14 / RFU, SNORA58 / Fold change vs veh, SNORA58 / RFU, C1orf63 / Fold change vs veh, C1orf63 / RFU, LRRFIP1 / Fold change vs veh, LRRFIP1 / RFU, NDUFAF7 / Fold change vs veh, NDUFAF7 / RFU, SLC12A2 / Fold change vs veh, SLC12A2 / RFU, IBTK / Fold change vs veh, IBTK / RFU, ESF1 / Fold change vs veh, ESF1 / Fold change vs veh, TMEM50B / RFU, TAOK1 / Fold change vs veh, TAOK1 / RFU, ACBD3 / Fold change vs veh, ACBD3 / RFU, TMA16 / Fold change vs veh, TMA16 / RFU, RWDD3 / Fold change vs veh, RWDD3 / RFU, BCAT1 / Fold change vs veh, BCAT1 / RFU, EDEM3 / Fold change vs veh, EDEM3 / RFU, TMEM33 / Fold change vs veh, TMEM33 / RFU, WDR75 / Fold change vs veh, WDR75 / RFU, AHCTF1 / Fold change vs veh, AHCTF1 / RFU, TFRC / Fold change vs veh, TFRC / RFU, ZDHHC17 / Fold change vs veh, ZDHHC17 / RFU, NOM1 / Fold change vs veh, NOM1 / RFU, ARL8B / Fold change vs veh, ARL8B / RFU, ZBTB11 / Fold change vs veh, ZBTB11 / RFU, TAMM41 / Fold change vs veh, TAMM41 / RFU, KIAA1704 /// LOC100996395 / Fold change vs veh, KIAA1704 /// LOC100996395 / RFU, ING1 / Fold change vs veh, ING1 / RFU, TRMT61B / Fold change vs veh, TRMT61B / RFU, FUBP3 / Fold change vs veh, FUBP3 / RFU, TP53 / Fold change vs veh, TP53 / RFU, TNKS2 / Fold change vs veh, TNKS2 / RFU, ZFP14 / Fold change vs veh, ZFP14 / RFU, ACTR2 / Fold change vs veh, ACTR2 / RFU, PPP3R1 / Fold change vs veh, PPP3R1 / RFU, PIK3R1 / Fold change vs veh, PIK3R1 / RFU, HNRNPA1 / Fold change vs veh, HNRNPA1 / RFU, RNF170 / Fold change vs veh, RNF170 / RFU, ZNF28 / Fold change vs veh, ZNF28 / RFU, RNGTT / Fold change vs veh, RNGTT / RFU, OGT / Fold change vs veh, OGT / RFU, BRD1 / Fold change vs veh, BRD1 / RFU, MARS / Fold change vs veh, MARS / RFU, ZNF655 / Fold change vs veh, ZNF655 / RFU, FAHD1 / Fold change vs veh, FAHD1 / RFU, BDP1 / Fold change vs veh, BDP1 / RFU, LRRCC1 / Fold change vs veh, LRRCC1 / RFU, ARID1A / Fold change vs veh, ARID1A / RFU, ZNF146 / Fold change vs veh, ZNF146 / RFU, ZNF330 / Fold change vs veh, ZNF330 / RFU, GPN3 / Fold change vs veh, GPN3 / RFU, C9orf123 / Fold change vs veh, C9orf123 / RFU, N4BP2L2 / Fold change vs veh, N4BP2L2 / RFU, ARFIP1 / Fold change vs veh, ARFIP1 / RFU, FAM179B / Fold change vs veh, FAM179B / RFU, BCL10 / Fold change vs veh, BCL10 / RFU, UHRF1BP1L / Fold change vs veh, UHRF1BP1L / RFU, BET1 / Fold change vs veh, BET1 / RFU, CNOT2 / Fold change vs veh, CNOT2 / RFU, ZNF268 / Fold change vs veh, ZNF268 / Fold change vs veh, ZNF507 / RFU, DGCR2 / Fold change vs veh, DGCR2 / RFU, WDSUB1 / Fold change vs veh, WDSUB1 / Fold change vs veh, HSP90B1 /// MIR3652 / RFU, ADSS / Fold change vs veh, ADSS / RFU, GK / Fold change vs veh, GK / RFU, ZNF148 / Fold change vs veh, ZNF148 / RFU, TAF9 / Fold change vs veh, TAF9 / RFU, SLC1A5 / Fold change vs veh, SLC1A5 / RFU, SLMO2 / Fold change vs veh, SLMO2 / RFU, ABCC4 / Fold change vs veh, ABCC4 / RFU, LOC101060439 /// RAP1B / Fold change vs veh, LOC101060439 /// RAP1B / RFU, RFX7 / Fold change vs veh, RFX7 / RFU, GTPBP10 / Fold change vs veh, GTPBP10 / RFU, CNEP1R1 / Fold change vs veh, CNEP1R1 / RFU, BIVM-ERCC5 /// ERCC5 / Fold change vs veh, BIVM-ERCC5 /// ERCC5 / RFU, ILF3 / Fold change vs veh, ILF3 / RFU 11762660_at / Fold change /veh 11762660_at / RFU VCAN (11757783_s_at) / Fold change /veh VCAN (11757783_s_at) / RFU DDX43 (11728927_at) / Fold change /veh DDX43 (11728927_at) / RFU KRT8 (11758188_x_at) / Fold change /veh KRT8 (11758188_x_at) / RFU NKD1 (11759106_at) / Fold change /veh NKD1 (11759106_at) / RFU SRD5A1 (11742802_a_at) / Fold change /veh SRD5A1 (11742802_a_at) / RFU TPSAB1 /// TPSB2 (11721975_s_at) / Fold change /veh TPSAB1 /// TPSB2 (11721975_s_at) / RFU GSTM3 (11746129_a_at) / Fold change /veh GSTM3 (11746129_a_at) / RFU IL23R (11737362_x_at) / Fold change /veh IL23R (11737362_x_at) / RFU TMEM51 (11727254_a_at) / Fold change /veh TMEM51 (11727254_a_at) / RFU PIWIL2 (11732686_x_at) / Fold change /veh PIWIL2 (11732686_x_at) / RFU ORM1 (11744905_x_at) / Fold change /veh ORM1 (11744905_x_at) / RFU CCDC152 (11743942_at) / Fold change /veh CCDC152 (11743942_at) / RFU ECM1 (11717891_a_at) / Fold change /veh ECM1 (11717891_a_at) / RFU IL23R (11748794_a_at) / Fold change /veh IL23R (11748794_a_at) / RFU TNFAIP8L3 (11732012_x_at) / Fold change /veh TNFAIP8L3 (11732012_x_at) / RFU MBOAT4 (11741988_at) / Fold change /veh MBOAT4 (11741988_at) / RFU 11764193_at / Fold change /veh 11764193_at / RFU TMEM53 (11763286_at) / Fold change /veh TMEM53 (11763286_at) / RFU MAGEB2 (11727129_at) / Fold change /veh MAGEB2 (11727129_at) / RFU TMEM200A (11744735_a_at) / Fold change /veh TMEM200A (11744735_a_at) / RFU CCDC152 (11751479_a_at) / Fold change /veh CCDC152 (11751479_a_at) / RFU FAM211A (11726209_a_at) / Fold change /veh FAM211A (11726209_a_at) / RFU RGS16 (11746705_a_at) / Fold change /veh RGS16 (11746705_a_at) / RFU VCAN (11755009_s_at) / Fold change /veh VCAN (11755009_s_at) / RFU RHOB (11743442_s_at) / Fold change /veh RHOB (11743442_s_at) / RFU RGS16 (11720943_a_at) / Fold change /veh RGS16 (11720943_a_at) / RFU RGS16 (11720944_at) / Fold change /veh RGS16 (11720944_at) / RFU, VPS4B / Fold change vs veh, VPS4B / RFU, CREB1 / Fold change vs veh, CREB1 / RFU, DNAJC13 / Fold change vs veh, DNAJC13 / RFU, GNAQ / Fold change vs veh, GNAQ / RFU, CDK5R1 / Fold change vs veh, CDK5R1 / RFU, ZRANB3 / Fold change vs veh, ZRANB3 / RFU, CUL4A / Fold change vs veh, CUL4A / RFU, CCNY / Fold change vs veh, CCNY / RFU, UFL1 / Fold change vs veh, UFL1 / RFU, COG3 / Fold change vs veh, COG3 / RFU, DIAPH2 / Fold change vs veh, DIAPH2 / RFU, SKA2 / Fold change vs veh, SKA2 / RFU, AFF3 / Fold change vs veh, AFF3 / RFU, LMF1 / Fold change vs veh, LMF1 / RFU, IPO11 / Fold change vs veh, IPO11 / RFU, DFFB / Fold change vs veh, DFFB / RFU, FOXP1 / Fold change vs veh, FOXP1 / RFU, CARD8 / Fold change vs veh, CARD8 / RFU, STRN3 / Fold change vs veh, STRN3 / RFU, ADK / Fold change vs veh, ADK / RFU, RASSF2 / Fold change vs veh, RASSF2 / RFU, WIPF1 / Fold change vs veh, WIPF1 / RFU, LARP1B / Fold change vs veh, LARP1B / RFU, RASA1 / Fold change vs veh, RASA1 / RFU, RB1 / Fold change vs veh, RB1 / RFU, PPFIA1 / Fold change vs veh, PPFIA1 / RFU, MAT2A / Fold change vs veh, MAT2A / RFU, CCT5 / Fold change vs veh, CCT5 / RFU, WDR92 / Fold change vs veh, WDR92 / RFU, CUX1 / Fold change vs veh, CUX1 / RFU, TTC7A / Fold change vs veh, TTC7A / RFU, TMEM135 / Fold change vs veh, TMEM135 / RFU, DEPTOR / Fold change vs veh, DEPTOR / RFU, CPM / Fold change vs veh, CPM / RFU, DNAJB6 / Fold change vs veh, DNAJB6 / RFU, CACNA2D3 / Fold change vs veh, CACNA2D3 / RFU, DTX4 / Fold change vs veh, DTX4 / RFU, TFCP2 / Fold change vs veh, TFCP2 / RFU, GMCL1 /// GMCL1P1 / Fold change vs veh, GMCL1 /// GMCL1P1 / RFU, AEBP2 / Fold change vs veh, AEBP2 / RFU, SNHG1 /// SNORD22 /// SNORD25 /// SNORD26 /// SNORD27 /// SNORD28 /// SNORD29 /// SNORD31 / Fold change vs veh, SNHG1 /// SNORD22 /// SNORD25 /// SNORD26 /// SNORD27 /// SNORD28 /// SNORD29 /// SNORD31 / Fold change (Aza/veh), C12orf56 (ProbeSet 11735607_a_at) / Fold change (ACY-1035/veh), C12orf56 (ProbeSet 11735607_a_at) / Fold change (Aza/veh), FGFR1OP (ProbeSet 11751329_s_at) / Fold change (ACY-1035/veh), FGFR1OP (ProbeSet 11751329_s_at) / Fold change (Aza/veh), VPS36 (ProbeSet 11739960_a_at) / Fold change (ACY-1035/veh), VPS36 (ProbeSet 11739960_a_at) / RFU SYPL1 (11715823_x_at) / Fold change /veh SYPL1 (11715823_x_at) / RFU IGFBP7 (11715501_s_at) / Fold change /veh IGFBP7 (11715501_s_at) / RFU REEP3 (11722064_at) / Fold change /veh REEP3 (11722064_at) / RFU IGLL1 (11728026_x_at) / Fold change /veh IGLL1 (11728026_x_at): dose or concentration left out as unconfirmed
Details: ProbeSet 11732165_x_at; LIST D

## Nc1ncn([C@@H]2O[C@H](CO)[C@@H](O)[C@H]2O)c(=O)n1 [azacitidine]
  Fold change vs veh, LMF1: 0.71
